Source: patent publication US12577201B2, “Glutamine analogs” (Jacobio Pharmaceuticals Co., Ltd., priority 2020, dated 2026)

Key:
MC38 tumor cells = experiment: Anti-tumor efficacy in MC38 model in CES1c -/- mouse (Example 10); assay type: in vivo; details: for TV (mm^3) (Mean ± SEM) D6 / TV (mm^3) (Mean ± SEM) D9 / TV (mm^3) (Mean ± SEM) D12 / TV (mm^3) (Mean ± SEM) D15 / TV (mm^3) (Mean ± SEM) D20 / TV (mm^3) (Mean ± SEM) D23 / T/C (%) / TGI (%) / TV (mm^3) (Mean ± SEM) D26: MC38, 2 μmol/kg S.C. QD; for T/C (%) / TGI (%) / TV (mm^3) (Mean ± SEM) D26 / TV (mm^3) at D26 (Mean ± SEM): D26; for TV (mm^3) at D26 (Mean ± SEM): Table 9, MC38, 2 μmol/kg S.C. QD
Method: Animal species: Mus musculus; Strain: C57BL/6-Ces1c^emISmoc; Age: 6-8 weeks; Sex: female. (Shanghai Model Organisms). The MC38 tumor cells were maintained in vitro in DMEM medium supplemented with 10% FBS at 37° C., 5% CO2. The cells growing in an exponential growth phase were harvested and counted for tumor inoculation. The culture MC38 were harvested, re-suspended in PBS containing 50% Matrigel at a density of 1×10^7 cells/mL. Each mouse was inoculated subcutaneously in the right flank region with 1×10^6 in 0.1 mL of PBS containing 50% Matrigel for tumor development.
The treatments were started when the mean tumor size reached 52-132 mm^3 (average tumor size 95 mm^3). Each group contained 5 tumor bearing mice. Group 1 was treated with Vehicle (10% DMSO+90% Saline), S.C., QD(Subcutaneous injection, quaque die).
(§1) In vivo efficacy was examined according to absolute tumor growth inhibition (TGI) and the safety was evaluated according to weight change and survival in mice.
Statistical analysis of difference in tumor volume among the groups was performed using one-way ANOVA followed by individual comparisons using Games-Howell post-hoc test (equal variance not assumed). All data was analyzed using SPSS 22.0 software.

[1] = Stability in liver microsomes, human; assay type: in vitro ADME; details: 60 minutes, read-out: In vitro Clint
Method: (§2) For metabolic stability, microsomes from human, monkey, dog, rat and mouse were used. For stability, prodrugs (1 μM) were spiked in each microsomes matrix and incubated in an orbital shaker at 37° C. Aliquots of 50 μL were taken from the reaction solution at 0, 15, 30, 45 and 60 min. The reaction was stopped by the addition of 4 volumes of cold acetonitrile with IS (100 nM alprazolam, 200 nM labetalol, 200 nM caffeine and 2 μM ketoprofen). Samples were centrifuged at 3, 220 g for 40 minutes. Aliquot of 100 μL of the supernatant was mixed with 100 μL of ultra-pure H2O and then used for LC-MS/MS analysis.
(§3) For LC-MS/MS, prodrugs were analyzed on an API 4000 instrument from AB Inc (Canada) with an ESI interface coupled to Shimadzu LC system on an Waters XSelect HSS T3 C18, 2.5 m, 2.1×30 mm column.
(§4) For data analysis, peak areas were determined from extracted ion chromatograms. The slope value, k, was determined by linear regression of the natural logarithm of the remaining percentage of the parent drug vs. incubation time curve. The in vitro half-life (in vitro t1/2) was determined from the slope value: in vitro t1/2=−(0.693/k)
(§5) Conversion of the in vitro t1/2 (min) into the in vitro intrinsic clearance (in vitro CLint, in μL/min/mg protein) was done using the following equation (mean of duplicate determinations): […]

[2] = Stability in liver microsomes, dog; assay type: in vitro ADME; details: 60 minutes, read-out: In vitro Clint
Method: as §2, §3, §4, §5

[3] = Stability in liver microsomes, monkey; assay type: in vitro ADME; details: 60 minutes, read-out: In vitro Clint
Method: as §2, §3, §4, §5

[4] = Stability in liver microsomes, rat; assay type: in vitro ADME; details: 60 minutes, read-out: In vitro Clint
Method: as §2, §3, §4, §5

[5] = Plasma stability, dog plasma; assay type: in vitro ADME; details: 1 μM, 37° C., 4 hours
Method: (§6) For metabolic stability, plasma from dog, monkey, swine and human were used. For stability, prodrugs (1 μM) were spiked in respective solutions and incubated in an orbital shaker at 37° C. 50 μL aliquots of the mixture in duplicate were removed, and the reaction quenched by addition of four times the volume of ice cold acetonitrile spiked with the internal standard (Dexamethasone 100 ng/mL). The samples were vortexed for 30 s and centrifuged at 15000 g for 5 min. 100 μL of the supernatant was diluted with 100 μL of water and transferred to the 0.6 mL plastic tubes on 96-well plate. Prodrug disappearance was monitored over time using a liquid chromatography and tandem mass spectrometry (LC-MS/MS).
(§7) For LC-MS/MS, prodrugs were analyzed on a ExionLC AD HPLC system coupled to REF Triple Quad 5500+ mass spectrometer with an ESI interface on an Phenomenex Kinetex 5 m C18 100A (2.1*50) mm UPLC column. The autosampler was temperature controlled and was operated at 4° C. The mobile phase used for the chromatographic separation was composed of acetonitrile/water containing 0.10% formic acid and will run at a flow rate of 0.6 mL/min for 3.5 min using gradient elution. The column effluent was monitored using […], equipped with an electrospray probe set in the positive ionization mode. Samples were introduced into the ionization source through a heated nebulized probe (400° C.). Disappearance of prodrugs will be measured from ratio of peak areas of analyte to IS.
(§8) For quantification of compound remaining, disappearance of prodrugs was measured from ratio of peak areas of analyte to IS.

[6] = Body weight of C57BL/6 mice bearing MC38 tumors (Example 9); assay type: in vivo, Mus musculus; details: C57BL/6, MC38, 2 μmol/kg S.C. QD
Method: The treatments were started when the mean tumor size reached 79-118 mm^3 (average tumor size 96 mm^3). Each group contained 8 tumor bearing mice. Group 1 was treated with Vehicle (10% DMSO+90% Saline), S.C., QD. Group 2 was given treatments with reference compound A at 2 μmol/kg, S.C., QD. Group 3 was given treatments with compound 2 at 2 μmol/kg, S.C., QD.
as §1

[7] = Plasma stability, swine plasma; details: 1 μM, 37° C., 4 hours
Method: as §6, with “The samples were vortexed for 30 s and centrifuged at 15000 g for 5 min.” left out
as §7, §8

Row | SMILES | TV (mm^3) (Mean ± SEM) D6 (MC38 tumor cells) | TV (mm^3) (Mean ± SEM) D9 (MC38 tumor cells) | TV (mm^3) (Mean ± SEM) D12 (MC38 tumor cells) | TV (mm^3) (Mean ± SEM) D15 (MC38 tumor cells) | TV (mm^3) (Mean ± SEM) D20 (MC38 tumor cells) | TV (mm^3) (Mean ± SEM) D23 (MC38 tumor cells) | T/C (%) (MC38 tumor cells) | TGI (%) (MC38 tumor cells) | TV (mm^3) (Mean ± SEM) D26 (MC38 tumor cells) | TV (mm^3) at D26 (Mean ± SEM) (MC38 tumor cells) | microsomal CLint at 1 μM [1] | microsomal CLint at 1 μM [2] | microsomal CLint at 1 μM [3] | microsomal CLint at 1 μM [4] | plasma stability (compound remaining) [5] | BW(g) (Mean ± SEM) Beginning (D6) [6] | BW(g) (Mean ± SEM) End (D21) [6] | plasma stability (compound remaining) [7] | BW Change (%) ([6]; D6 to D21)
1 | CO[C@@H](C)C(=O)N[C@@H](CCC(=O)C=[N+]=[N-])C(=O)OC(C)C [Compound 2, isopropyl (S)-6-diazo-2-((S)-2-methoxypropanamido)-5-oxohexanoate] | 95 ± 11 mm^3 | 193 ± 20 mm^3 | 103 ± 15 mm^3 | 131 ± 21 mm^3 | 169 ± 19 mm^3 | 219 ± 21 mm^3 | 14.0% | 86.0% | 313 ± 35 mm^3 | 313 ± 35 mm^3 | 43.4 µL/min/mg | 12.7 µL/min/mg | 31.8 µL/min/mg | 62.4 µL/min/mg | substantially intact | 21.7 ± 0.2 g | 22.4 ± 0.2 g | substantially intact | –
2 | CC(=O)N[C@@H](Cc1c[nH]c2ccccc12)C(=O)N[C@@H](CCC(=O)C=[N+]=[N-])C(=O)OC(C)C [Reference compound A, reference compound] | 95 ± 6 mm^3 | 275 ± 33 mm^3 | 147 ± 5 mm^3 | 195 ± 23 mm^3 | 196 ± 33 mm^3 | 183 ± 33 mm^3 | 12.3% | 87.7% | 274 ± 81 mm^3 | 274 ± 81 mm^3 | 119 µL/min/mg | 60.4 µL/min/mg | 393 µL/min/mg | 95.2 µL/min/mg | substantially intact | 21.9 ± 0.3 g | 22.5 ± 0.4 g | substantially intact | +2.8%
